# Laboratory results taken from patent publication US9907857B2, “Peptide having cell membrane penetrating activity” (EWHA UNIVERSITY-INDUSTRY COLLABORATION FOUNDATION, priority 2006, dated 2018).
# B1: full length TCTP: translationally controlled tumor protein, 172 amino acids, expressed with 6 histidine tag in E. coli (protein, UniProt P13693 1-172, looked up)
# chain: MIIYRDLISHDEMFSDIYKIREIADGLCLEVEGKMVSRTEGNIDDSLIGGNASAEGPEGEGTESTVITGVDIVMNHHLQETSFTKEAYKKYIKDYMKSIKGKLEEQRPERVKPFMTGAAEQIKHILANFKNYQFFIGENMNPDGMVALLDYREDGVTPYMIFFKDGLEMEKC
# modifications: full-length
# Experiments:
# Assay type in all cases: cell-based
# HeLa cells [1] = experiment: Intracellular translocation of alanine substituents of TCTP(1-9), microplate fluorescence reader; conditions: for decline in uptake, fluorescence intensity of TCTP (1-9) at 100 μM set to 100%: sensitivity 75 (FIG. 5); for penetrating activity of alanine substituents compared with WT TCTP(1-9): HeLa
# Method: N-terminus of each peptide was labeled with fluorescence dye, rhodamine and C-terminus was protected. Peptide purity (>95%) was determined by HPLC. Synthesis of peptides of present invention was requested to PEPTRON, Inc.
# (§1) HeLa cell line was propagated in DMEM supplemented with 10% FBS and 100 units/mL penicillin-streptomycin. Cells were grown in a 5% CO2 incubator at 37° C.
# (§2) HeLa cells were cultured in 48-well plate until they were 70˜80% grown up before a day of the experiment. The cells were washed with DMEM of 37° C. twice, and TCTP-derived peptides synthesized in Example 4-1) were treated to the culture medium in a dose dependent manner (0, 1, 10, 100 μM), then the cells was incubated for 15 minutes or 2 hours in an CO2 incubator at 37° C.
# After the incubation, the cells were washed in cool PBS three times and immediately measured by a microplate fluorescence reader at emission 530 nm and excitation 590 nm for a measurement of rhodamine of intracellular uptake marker. The sensitivity of reader was set at 100 as a basic, but was lowered to 75 if fluorescent signals were strong. All experiments were conducted in triplet repeats for reproducibility (FIG. 5 and FIG. 6).
# Meanwhile, when the sensitivity of KC4 plate reader was set down to 75, we could not analyze the result of cell penetrating activity at relatively low concentration of 1 or 10 μM, so sensitivity of reader was fixed at 100 (FIG. 6). At this time, because fluorescence intensity at 100 μM was very strong, we could not express in a same graph.
# HeLa cells [2] = experiment: Cell penetrating activity of FITC-labelled mutant peptides, mean fluorescence intensity by FACS; conditions: 2 hours, FACS
# Method: N-terminus of each peptide was labeled with fluorescence dye, FITC and C-terminus was protected. Peptide purity (>95%) was determined by HPLC. Synthesis of the peptides of the present invention was requested to PEPTRON, Inc.
# as §1
# HeLa cells were cultured in 6-well plate until they were 70˜80% grown up before a day of the experiment. The cells were washed with DMEM of 37° C. twice, and TCTP-derived peptides synthesized in Example 5-1) were treated to the culture medium in a dose dependent manner (0, 1, 10, 100 μM), then the cells was incubated for 2 hours in an CO2 incubator at 37° C.,
# After the incubation, the cells were washed in cool PBS two times and treated with 1 mg/ml trypsin for 15 min at 37° C. to digest peptides attached on cell membrane and washed in PBS twice again. Then, the cells were analyzed by FACS at emission 510 nm and excitation 530 nm for a measurement of FITC of intracellular uptake marker (FIGS. 7, 8 and 9). Intracellular translocation efficiency of mutant peptides, TCTP-CPP#1-35(SEQ ID Nos.: 20-54) was compared to wild type(WT), TCTP(1-10)(SEQ ID No.: 1) and control peptide, TAT(48-57).
# HeLa cells [3] = conditions: treated for 48 hours; concentration not restated, 100 μM implied
# Method: To confirm whether cell penetrating activity of the peptides of present invention was due to membrane weakness as a result of cytotoxicity, we measured cytotoxicity as follows. HeLa cells were cultured in 96-well plate until they were 70% grown up before a day of the experiment. Control TAT 48-57 and the mutant peptides at concentrations of 0, 1, 10, 100 μM were treated to DMEM supplemented with 10% FBS for 24 and 48 hours. After 2 hours in addition of 10 μl of CCK-8 to each well, absorbance at 450 nm was measured by KC4 plate reader(FIGS. 10, 11 and 12). As a result of toxicity at 100 μM for 24 hours, cytotoxicity of SEQ ID No.: 1, TCTP(1-10) was about 14% compared with control, and cytotoxicities of the other peptides, TCTP-CPP#3, 7 and 8 were insignificant considering standard deviation. When treated for 48 hours, all peptides had no cytotoxicity at 1 and 10 μM while cytotoxicities of TAT, TCTP(1-10), TCTP-CPP#3, 7 and 8 were about 53.8, 28.3, 46.2, 8.2 and 25.6%, respectively. […] Also, all of TCTP-CPP#27-35 had no cytotoxicity at 1 μM and 10 μM but had cytotoxicity at 100 μM.
# HeLa cells [4] = experiment: Cell penetrating efficiency of rhodamine-labelled TCTP-derived peptides, microplate fluorescence reader; conditions: for intracellular translocation, dependence on concentration: 0-100 μM, 15 minutes or 2 hours; for efficiency versus control peptide TAT at low concentration: 1 μM and 10 μM; for cell penetrating activity / translocation efficiency in comparison with TAT (words): HeLa, rhodamine-labelled peptides, overall
# Method: N-terminus of each peptides was labeled with fluorescence dye, rhodamine and C-terminus was protected. Peptide purity (>95%) was determined by HPLC. Synthesis of the peptides was requested to PEPTRON, Inc.
# HeLa cell line (ATCC) was propagated in DMEM (GIBCO) supplemented with 10% FBS (GIBCO) and 100 units/mL penicillin-streptomycin. Cells were grown in a 5% CO2 incubator at 37° C.
# as §2, with “2-1)” for “4-1)”, “1, 5,” for “1,”, “10, 50,” for “10,”
# After the incubation, the cells were washed in cool PBS three times and immediately measured by a microplate fluorescence reader (BIO-TEK instruments, Inc., Vermont, USA) at emission 530 nm and excitation 590 nm for a measurement of rhodamine of intracellular uptake marker. The sensitivity of reader was set at 100 as a basic mode, but was lowered to 75 if the fluorescent signals were too strong. All experiments were conducted in triplet repeats for reproducibility (FIG. 2 and FIG. 3).
# HeLa cells [5] = experiment: Intracellular translocation of TCTP-derived peptide by fluorescence microscope; conditions: 2 hours
# Method: HeLa cells were treated with TCTP (1-9)(SEQ ID No.: 2) at a concentration of 10 μM and 100 μM by the same method of Example 2-2). […] After washing, cells on cover glass attached slide glass were observed (FIG. 4).
# BEAS-2B cell = experiment: Cellular uptake of deletion forms of TCTP, western blot of supernatant and lysate; conditions: 15 ug/ml
# Method: To overexpress each of those deletion forms of TCTP (FIGS. 1a and 1c), pRSET vector that is capable of tagging 6 histidine was employed. Subcloning with DNA sequences corresponding to each deletion forms of TCTP was performed in the multicloning site of the vector. Then, the recombinant expression vector was introduced into E. coli BL21(DE3)(Novagen) or BL21(DE3)pLysS (Novagen). The expression of the deletion forms of TCTP was induced by IPTG (isopropyl (-D-thiogalactoside) for 3 hours, then the protein was isolated and purified by using Ni column which binds to polyhistidine.
# BEAS-2B cell was treated with the deletion form of TCTP at the concentration of 15 ug/ml with anti-TCTP antibodies (FIG. 1b).
# In addition, it was examined whether TCTP proteins of the present invention could be transferred to cellular interior for a short time, 5 minutes or 30 minutes. The experiment was performed by same method as the above (FIG. 1d).
molecule,measurement,setting,value
MIIYADLIS (mutant peptide based on human sequence; (1)..(9) TCTP(1-9)R5A) [SEQ ID No.: 12],"decline in uptake, fluorescence intensity of TCTP (1-9) at 100 μM set to 100%",HeLa cells [1]; 2 hours,about 50%
same,penetrating activity of alanine substituents compared with WT TCTP(1-9),HeLa cells [1],still maintained in translocation activity
MIIYRDLAS [SEQ ID No.: 15] (mutant peptide based on human sequence; (1)..(9) TCTP(1-9)I8A),"decline in uptake, fluorescence intensity of TCTP (1-9) at 100 μM set to 100%",HeLa cells [1]; 2 hours,about 50%
MIIYRALIS (mutant peptide based on human sequence; (1)..(9) TCTP(1-9)D6A) [SEQ ID No.: 13],"penetrating activity, fluorescence intensity of TCTP (1-9) at 10 μM set to 1","HeLa cells [1]; 10 μM, 2 hours, sensitivity 100 (FIG. 6)",2.5 times
same,"decline in uptake, fluorescence intensity of TCTP (1-9) at 100 μM set to 100%",HeLa cells [1]; 2 hours,about 50%
same,penetrating activity of alanine substituents compared with WT TCTP(1-9),HeLa cells [1],still maintained in translocation activity
MIIYRDLAS [SEQ ID No.: 14],"decline in uptake, fluorescence intensity of TCTP (1-9) at 100 μM set to 100%",HeLa cells [1]; 2 hours,about 50%
"GRKKRRQRRR (Human immunodeficiency virus; (1)..(10) 48-57 amino acid residue of TAT) [TAT(48-57), Control peptide, well-known PTD from HIV-1 TAT, reference compound]","mean fluorescence intensity (MFI) relative to WT, MFI of WT at 10 μM set to 1",HeLa cells [2]; peptide at 10 μM,6.1 times
same,mean fluorescence intensity (MFI) relative to WT,HeLa cells [2]; peptide at 100 μM,94.75 times
same,cytotoxicity,HeLa cells [3],about 53.8%
same,"intracellular translocation, dependence on concentration",HeLa cells [4],transduced into cell in a dose and time-dependent manner
same,concentration at which translocation was saturated,HeLa cells [4]; 2 hour treatment (FIG. 3),≥ 1 µM
MIIYRDLIA (mutant peptide based on human sequence; (1)..(9) TCTP(1-9)S9A) [SEQ ID No.: 16],"decline in uptake, fluorescence intensity of TCTP (1-9) at 100 μM set to 100%",HeLa cells [1]; 2 hours,about 50%
same,penetrating activity of alanine substituents compared with WT TCTP(1-9),HeLa cells [1],still maintained in translocation activity
"MIIYRDLIS ((1)..(9) 1-9 amino acid residue of TCTP; listed as Homo sapiens) [SEQ ID No.: 2, Residues of TCTP(1-9)]",intracellular translocation (fluorescence microscope),HeLa cells [5]; 10 μM,weakly translocated
same,intracellular translocation (fluorescence microscope),HeLa cells [5]; 100 μM,strongly
same,intracellular distribution (fluorescence microscope),HeLa cells [5]; HeLa,distributed widely in cytoplasm and nucleus of the cell
same,"intracellular translocation, dependence on concentration",HeLa cells [4],translocated not in 1-10 μM but in 50-100 μM
same,efficiency versus control peptide TAT at low concentration,HeLa cells [4],"lower efficiency than control peptide, TAT"
same,cell penetrating activity / translocation efficiency in comparison with TAT (words),HeLa cells [4],excellent cell penetrating activity in comparison with conventional TAT
same,cell penetrating activity / translocation efficiency in comparison with TAT (words),HeLa cells [4]; listed as TCTP (1-9),"superior ability than well-known PTD, TAT in their translocation efficiency"
same,cell penetrating activity / translocation efficiency in comparison with TAT (words),HeLa cells [4]; listed as TCTP(1-9),more excellent penetrating activity than well-known TAT(47-58) peptide
"IIYRDLISH ((1)..(9) 2-10 amino acid residue of TCTP; listed as Homo sapiens) [SEQ ID No.: 4, Residues of TCTP(2-10)]","intracellular translocation, dependence on concentration",HeLa cells [4],not translocated at a concentration of 1 μM to 10 μM
same,efficiency versus control peptide TAT at low concentration,HeLa cells [4],"lower efficiency than control peptide, TAT"
same,translocation,"HeLa cells [4]; 100 μM, 15 minutes treatment",more efficiently translocated at 100 μM after 15 minutes treatment
same,cell penetrating activity / translocation efficiency in comparison with TAT (words),HeLa cells [4],excellent cell penetrating activity in comparison with conventional TAT
same,cell penetrating activity / translocation efficiency in comparison with TAT (words),HeLa cells [4]; listed as TCTP (2-10),"superior ability than well-known PTD, TAT in their translocation efficiency"
same,cell penetrating activity / translocation efficiency in comparison with TAT (words),HeLa cells [4]; listed as TCTP(2-10),more excellent penetrating activity than well-known TAT(47-58) peptide
same,translocation versus control peptide TAT(48-57),"HeLa cells [4]; after 2 hours, 100 μM",more efficiently translocated at 100 μM than control peptide
B1,"protein in cell supernatant (western blot, anti-TCTP antibodies)",BEAS-2B cell; 24 hours later,disappeared 24 hours later
same,"protein in cell supernatant (western blot, anti-TCTP antibodies)",BEAS-2B cell; incubation for 1 hour,existed in cell supernatants
